Source: US7649012B2, “Compounds, pharmaceutical compositions containing same, and methods of use for same” (FASgen, Inc., priority 2002, dated 2010)
≈ marks a conversion by molar mass, not a printed value. Where two headings read alike, the source gives them in different places.

Experiments:
purified human FAS = target: T1, purified human FAS (Homo sapiens, UniProt P49327); experiment: Measurement of FAS enzymatic activity (NADPH oxidation), IC50; format: biochemical
T1 construct: Human FAS was purified from cultured ZR-75-1 human breast cancer cells; endogenous in cells; host or cells: ZR-75-1 human breast cancer cells (ATCC); endogenous enzyme purified by PEG precipitation and Mono Q anion exchange
T1 sequence (P49327 whole entry): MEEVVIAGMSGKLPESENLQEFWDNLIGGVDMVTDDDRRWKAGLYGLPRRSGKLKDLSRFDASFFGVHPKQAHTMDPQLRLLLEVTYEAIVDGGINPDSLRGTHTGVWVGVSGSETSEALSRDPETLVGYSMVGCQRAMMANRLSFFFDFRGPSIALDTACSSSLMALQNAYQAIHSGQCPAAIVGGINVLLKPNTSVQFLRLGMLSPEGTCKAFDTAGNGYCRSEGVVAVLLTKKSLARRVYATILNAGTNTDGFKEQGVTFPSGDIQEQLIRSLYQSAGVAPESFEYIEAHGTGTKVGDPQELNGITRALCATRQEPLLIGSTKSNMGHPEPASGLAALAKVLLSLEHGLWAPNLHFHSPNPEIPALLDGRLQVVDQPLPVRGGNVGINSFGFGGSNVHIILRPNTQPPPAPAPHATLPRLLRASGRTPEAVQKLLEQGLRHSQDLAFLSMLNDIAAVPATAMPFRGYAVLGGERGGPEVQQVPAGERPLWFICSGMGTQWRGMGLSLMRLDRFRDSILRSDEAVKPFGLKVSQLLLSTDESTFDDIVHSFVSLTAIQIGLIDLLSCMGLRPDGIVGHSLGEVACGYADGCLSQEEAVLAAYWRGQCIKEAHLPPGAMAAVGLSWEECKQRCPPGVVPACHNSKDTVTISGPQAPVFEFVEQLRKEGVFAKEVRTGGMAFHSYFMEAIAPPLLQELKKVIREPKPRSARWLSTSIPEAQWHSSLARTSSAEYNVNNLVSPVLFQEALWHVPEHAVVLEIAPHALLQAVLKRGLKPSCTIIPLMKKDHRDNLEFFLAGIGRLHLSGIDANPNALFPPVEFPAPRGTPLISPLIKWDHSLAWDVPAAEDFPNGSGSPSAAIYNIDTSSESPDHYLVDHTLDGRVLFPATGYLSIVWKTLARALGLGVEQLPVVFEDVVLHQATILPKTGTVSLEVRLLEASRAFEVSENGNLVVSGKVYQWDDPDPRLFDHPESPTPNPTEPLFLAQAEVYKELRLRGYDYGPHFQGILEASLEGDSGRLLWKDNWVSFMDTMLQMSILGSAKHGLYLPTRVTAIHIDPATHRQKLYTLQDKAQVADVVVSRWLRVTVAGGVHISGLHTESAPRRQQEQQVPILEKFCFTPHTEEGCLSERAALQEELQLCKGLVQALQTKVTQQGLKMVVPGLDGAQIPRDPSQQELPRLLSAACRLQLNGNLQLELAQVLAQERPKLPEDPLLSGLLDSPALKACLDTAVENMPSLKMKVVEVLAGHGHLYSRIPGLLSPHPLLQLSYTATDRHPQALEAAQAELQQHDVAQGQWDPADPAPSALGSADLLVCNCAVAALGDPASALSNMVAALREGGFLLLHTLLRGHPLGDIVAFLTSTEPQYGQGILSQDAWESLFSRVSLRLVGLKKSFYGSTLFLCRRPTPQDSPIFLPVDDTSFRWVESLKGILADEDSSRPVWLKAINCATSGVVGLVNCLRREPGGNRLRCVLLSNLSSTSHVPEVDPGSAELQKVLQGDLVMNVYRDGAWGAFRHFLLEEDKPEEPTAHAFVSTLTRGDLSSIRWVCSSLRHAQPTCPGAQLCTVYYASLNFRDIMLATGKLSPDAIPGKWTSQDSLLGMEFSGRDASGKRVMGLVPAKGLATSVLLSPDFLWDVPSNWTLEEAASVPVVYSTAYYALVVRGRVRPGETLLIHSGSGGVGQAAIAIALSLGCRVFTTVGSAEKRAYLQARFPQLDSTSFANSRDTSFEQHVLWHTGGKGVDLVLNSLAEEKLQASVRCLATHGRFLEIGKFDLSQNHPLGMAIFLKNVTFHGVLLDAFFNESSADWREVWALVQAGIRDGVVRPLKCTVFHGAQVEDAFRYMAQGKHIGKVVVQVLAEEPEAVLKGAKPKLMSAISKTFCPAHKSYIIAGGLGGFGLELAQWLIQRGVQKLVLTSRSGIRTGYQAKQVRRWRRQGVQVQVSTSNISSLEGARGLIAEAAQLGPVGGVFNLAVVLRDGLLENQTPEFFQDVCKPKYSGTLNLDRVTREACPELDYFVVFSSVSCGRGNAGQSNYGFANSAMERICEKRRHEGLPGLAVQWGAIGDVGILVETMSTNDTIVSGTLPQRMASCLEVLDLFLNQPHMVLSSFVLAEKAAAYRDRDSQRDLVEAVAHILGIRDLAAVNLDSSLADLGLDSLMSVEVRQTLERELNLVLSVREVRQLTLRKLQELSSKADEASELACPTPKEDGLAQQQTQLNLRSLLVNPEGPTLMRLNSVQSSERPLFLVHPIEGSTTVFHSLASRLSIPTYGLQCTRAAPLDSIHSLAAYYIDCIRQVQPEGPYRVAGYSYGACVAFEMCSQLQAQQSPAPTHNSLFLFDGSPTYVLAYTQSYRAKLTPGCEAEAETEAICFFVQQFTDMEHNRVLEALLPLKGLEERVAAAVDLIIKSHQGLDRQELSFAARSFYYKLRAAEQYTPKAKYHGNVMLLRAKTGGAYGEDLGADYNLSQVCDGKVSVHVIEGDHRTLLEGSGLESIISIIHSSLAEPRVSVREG
Description: Human FAS was purified from cultured ZR-75-1 human breast cancer cells obtained from the American Type Culture Collection. The procedure, adapted from Linn et al., 1981, and Kuhajda et al., 1994, utilizes hypotonic lysis, successive polyethyleneglycol (PEG) precipitations, and anion exchange chromatography. […] The lysate is centrifuged in JA-20 rotor (Beckman) at 20,000 rpm for 30 minutes at 4° C. and the supernatant is brought to 42 ml with lysis buffer. A solution of 50% PEG 8000 in lysis buffer is added slowly to the supernatant to a final concentration of 7.5%. After rocking for 60 minutes at 4° C., the solution is centrifuged in JA-20 rotor (Beckman) at 15,000 rpm for 30 minutes at 4° C. […] After the rocking and centrifugation is repeated as above, the pellet is resuspended overnight at 4° C. in 10 ml of Buffer A (20 mM K2HPO4, pH 7.4). After 0.45 μM filtration, the protein solution is applied to a Mono Q 5/5 anion exchange column (Pharmacia). The column is washed for 15 minutes with buffer A at 1 ml/minute, and bound material is eluted with a linear 60-ml gradient over 60 minutes to 1 M KCl. […] FAS protein concentration is determined using the Coomassie Plus Protein Assay Reagent (Pierce) according to manufacturer's specifications using BSA as a standard. This procedure results in substantially pure preparations of FAS (>95%) as judged by Coomassie-stained gels. FAS activity is measured by monitoring the malonyl-CoA dependent oxidation of NADPH spectrophotometrically at OD340 in 96-well plates (Dils et al and […] et al, 1975). […] For each experiment, cerulenin (Sigma) is run as a positive control along with DMSO controls, inhibitors, and blanks (no FAS enzyme) all in duplicate. The assay is performed on a Molecular Devices SpectraMax Plus Spectrophotometer. The plate containing FAS, buffers, inhibitors, and controls are placed in the spectrophotometer heated to 37° C. Using the kinetic protocol, the wells are blanked on duplicate wells containing 100 μl of 100 mM K2HPO4, pH 6.5 and the plate is read at OD340 at 10 sec intervals for 5 minutes to measure any malonyl-CoA independent oxidation of NADPH. The plate is removed from the spectrophotometer and malonyl-CoA (67.4 μM, final concentration per well) and […] (61.8 μM, final concentration per well) are added to each well except to the blanks. The plate is read again as above with the kinetic protocol to measure the malonyl-CoA dependent NADPH oxidation. The difference between the Δ OD340 for the malonyl-CoA dependent and non-malonyl-CoA dependent NADPH oxidation is the specific FAS activity. Because of the purity of the FAS preparation, non-malonyl-CoA dependent NADPH oxidation is negligible. […] Graphs of Δ OD340 versus time are plotted by the SOFTmax PRO software (Molecular Devices) for each compound concentration.

[1] = test system: MCF-7 human breast cancer cells; experiment: [14C]acetate incorporation into total lipids; format: cell-based; conditions: for IC50: Homo sapiens, MCF7, [14C]acetate incorporation into lipids; for 14C(IC50): [14C]acetate incorporation into lipids
Description: This assay measures the incorporation of [^14C]acetate into total lipids and is a measure of fatty acid synthesis pathway activity in vitro. It is utilized to measure inhibition of fatty acid synthesis in vitro.
MCF-7 human breast cancer cells cultured as above, are plated at 5×10^4 cells per well in 24-well plates. […] DMSO is added to triplicate wells for a vehicle control. C75 is run at 5 and 10 μg/ml in triplicate as positive controls. After 4 hours of incubation, 0.25 μCi of [^14C]acetate (10 μl volume) is added to each well.
After 2 hours of additional incubation, medium is aspirated from the wells and 800 μl of chloroform:methanol (2:1) and 700 μl of 4 mM MgCl2 is added to each well. Contents of each well are transferred to 1.5 Eppendorf tubes, and spun at full-speed for 2 minutes in a high-speed Eppendorf Microcentrifuge 5415D. After removal of the aqueous (upper) layer, an additional 700 μl of chloroform:methanol (2:1) and 500 μl of 4 mM MgCl2 are added to each tube and then centrifuged for 1 minutes as above. The aqueous layer is removed with a Pasteur pipette and discarded. An additional 400 μl of chloroform:methanol (2:1) and 200 μl of 4 mM MgCl2 are added to each tube, then centrifuged and aqueous layer is discarded. The lower (organic) phase is transferred into a scintillation vial and dried at 40° C. under N2 gas. Once dried, 3 ml of scintillant (APB #NBC5104) is added and vials are counted for ^14C. The Beckman Scintillation counter calculates the average cpm values for triplicates.
The IC50 for the compounds is defined as the concentration of drug leading to a 50% reduction in [^14C]acetate incorporation into lipids compared to controls. […] The average cpm values are computed by the Beckman scintillation counter (Model LS6500) for each compound concentration. Computation of linear regression, best-fit line, r^2, and 95% confidence intervals are calculated using Prism Version 3.0 (Graph Pad Software).

OV = experiment: XTT cytotoxicity assay, cells marked (OV); format: cell-based

| Structure (SMILES) | FAS(IC50) (purified human FAS) | IC50 [1] | also measured |
| --- | --- | --- | --- |
| CCCCCCCCC1(C)SC(=O)C=C1OCC(=O)NNCc1ccc(Cl)cc1 (stereo not shown) | Neg | 10.5 ± 2.6 µg/mL (≈ 23.9 µM) | IC50 (OV): 16 µg/mL (≈ 36.4 µM) |
| CCCCCCCC[C@@]1(C)SC(=O)C(C(=O)C(F)(F)F)=C1O (racemic) | – | 14.7 µg/mL (≈ 43.4 µM) | IC50 (purified human FAS; unit inferred): 121 µM |
| CCCCCCC1(C)SC(=O)C=C1O (stereo not shown) | Neg | 16.5 ± 3.8 µg/mL (≈ 77 µM) | – |
| CCCCCCCC[C@@]1(C)SC(=O)C=C1OC(=O)OC (racemic) | – | 10.7 µg/mL (≈ 35.6 µM) | IC50 (purified human FAS): 5.99 µM |
| CC/C=C/C=C/C1(C)SC(=O)C=C1O (stereo not shown) | – | 16.9 µg/mL (≈ 80.4 µM) | IC50 (purified human FAS): 238 µM |
| CCCCCCCCC1(C)SC(=O)C(C(C)O)=C1O (stereo not shown) | – | 17.6 µg/mL (≈ 61.4 µM) | IC50 (purified human FAS): 11.5 µM |
| CCCCCC[C@@]1(C)SC(=O)C=C1OCCCCCl (racemic) | Neg | 8.6 µg/mL (≈ 28.2 µM) | – |
| CCCCCCCCC1(C)SC(=O)C=C1OC(=O)OCC (stereo not shown) | – | 14.5 ± 6.9 µg/mL (≈ 46.1 µM) | IC50 (purified human FAS; unit inferred): 9.54 µM |
| CCCCCC[C@@]1(C)SC(=O)C=C1OCC(=O)NCCCBr (racemic) | Neg | 6.7 µg/mL (≈ 17.1 µM) | – |
| CCCCCC[C@@]1(C)SC(=O)C=C1OCC(=O)NCC(=O)O (racemic) | Neg | 6.6 µg/mL (≈ 20 µM) | – |
| C/C=C/C(C)=C/C1(C)SC(=O)C=C1O (stereo not shown) | – | 17.3 µg/mL (≈ 82.3 µM) | IC50 (purified human FAS): 339 µM |
| CCCCCCC1(C)SC(=O)C=C1OC (stereo not shown) | Neg | 14 ± 2.8 µg/mL (≈ 61.3 µM) | – |
| C=CCC1=C(OC)C(C)(CCCCCCCC)SC1=O (stereo not shown) | Neg | 23.1 ± 17.4 µg/mL (≈ 77.9 µM) | – |
| CCCCCCCCC1(C)SC(=O)C(C)=C1OC (stereo not shown) | Neg | 63.8 µg/mL (≈ 236 µM) | – |
| C#CCOC1CC(=O)S[C@]1(C)CCCCCC (mixture of isomers) | Neg | 21.9 ± 1.5 µg/mL | – |
| CCCCCCCCC1(C)SC(=O)C=C1OCc1ccccc1 (stereo not shown) | Neg | – | 14C(IC50) [1]: Neg(stim); IC50 (OV): 27.8 µg/mL (≈ 83.6 µM) |
| CCCCCCCCC1(C)SC(=O)C(C(C)O)=C1OC (stereo not shown) | – | 21.7 µg/mL (≈ 72.2 µM) | IC50 (purified human FAS): 9.32 µM |
| CCCCCCCC[C@@]1(C)SC(=O)C=C1OC(=O)CC (racemic) | Neg | 22.6 µg/mL (≈ 75.7 µM) | – |
| CCCCCCCC[C@@]1(C)SC(=O)C=C1OCC(=O)OCC (racemic) | Neg | 10.8 ± 5.8 µg/mL (≈ 32.9 µM) | – |
| CCCCCC[C@@]1(C)SC(=O)C=C1OCC(=O)NCC(=O)OC (racemic) | Neg | 9.8 µg/mL (≈ 28.5 µM) | – |

| Structure (SMILES) | FAS(IC50) (purified human FAS) | IC50 [1] | also measured |
| --- | --- | --- | --- |
| CCCCCCCCC1(C)SC(=O)C=C1OC (stereo not shown) | Neg | 11 µg/mL (≈ 42.9 µM) | – |
| CCCCCCCC[C@@]1(C)SC(=O)C(C(C)=O)=C1O (racemic) | Neg | 12.1 ± 0.1 µg/mL (≈ 42.5 µM) | – |
| C=CCN(C)C(=O)COC1=CC(=O)SC1(C)CCCCCCCC (stereo not shown) | Neg | 25.7 µg/mL (≈ 72.7 µM) | – |
| C=C/C(C)=C/C1(C)SC(=O)C=C1O (stereo not shown) | – | – | IC50 (purified human FAS): 44.8 µM |
| CCCCCCCCC1(C)SC(=O)C=C1OCC(=O)NNC(C)=O (stereo not shown) | Neg | 11.5 µg/mL (≈ 32.3 µM) | IC50 (OV): 16 µg/mL (≈ 44.9 µM) |
| C=CCOC(=O)OC1=CC(=O)S[C@]1(C)CCCCCCCC (racemic) | – | 14.2 µg/mL (≈ 43.5 µM) | IC50 (purified human FAS): 16.8 µM |
| CCCC/C=C/C=C/C1(C)SC(=O)C=C1O (stereo not shown) | – | 25.7 µg/mL (≈ 108 µM) | IC50 (purified human FAS): 36.1 µM |
| CCCCCCCCC1(C)SC(=O)C=C1OCC(=O)NNC(=O)c1ccco1 (stereo not shown) | Neg | 16.4 µg/mL (≈ 40.1 µM) | IC50 (OV): 21.3 µg/mL (≈ 52.1 µM) |
| CCCCCCCC[C@@]1(C)SC(=O)C=C1OCC(=O)O | Neg | 13.8 ± 1.1 µg/mL (≈ 45.9 µM) | – |
| CCCCCCCCC1(C)SC(=O)C=C1O (stereo not shown) | – | 12.6 ± 4.4 µg/mL (≈ 52 µM) | IC50 (purified human FAS): 18.6 µM |
| C=CCNC(=O)COC1=CC(=O)S[C@]1(C)CCCCCCCCCC (racemic) | Neg | – | 14C(IC50) [1]: Neg |
| CC1(Cc2ccccc2)SC(=O)C=C1O (stereo not shown) | Neg | – | 14C(IC50) [1]: Neg |
| C=CCC1(C)C(=O)S[C@](C)(CCCCCCCC)C1=O (mixture of isomers) | Neg | 14.9 µg/mL | – |
| C=CCOC1=CC(=O)S[C@]1(C)CCCCCC (racemic) | Neg | – | 14C(IC50) [1]: Neg |
| CCCCCCCCC1(C)SC(=O)C(C)=C1O (stereo not shown) | – | 16.5 ± 5.7 µg/mL (≈ 64.3 µM) | IC50 (purified human FAS): 192 µM |
| CCCCCC[C@@]1(C)SC(=O)C=C1OCC(=O)OCC (racemic) | Neg | 14.2 ± 0.2 µg/mL (≈ 47.3 µM) | – |
| CCCCCCCC[C@@]1(C)SC(=O)C=C1OC(=O)NC(C)C (racemic) | – | 23.1 ± 13.2 µg/mL (≈ 70.5 µM) | IC50 (purified human FAS): 246 µM |
| CCCCCCCC[C@@]1(C)SC(=O)C=C1OCCCCCl (racemic) | Neg | 6.8 µg/mL (≈ 20.4 µM) | – |
| COC1=CC(=O)SC1(C)Cc1ccccc1 (stereo not shown) | Neg | – | – |
| C=CCOC1=CC(=O)S[C@]1(C)CCCCCCCC (racemic) | Neg | – | 14C(IC50) [1]: Neg |
